In patent US9309276B2, “Synthetic lipid A derivative” (University of Georgia Research Foundation, Inc., priority 2007, dated 2016):
Read-outs that look alike come from different tables or passages of the source.

Tests used:
RAW cells = assay: Antagonism of E. coli LPS-induced TNF-α production in mouse macrophages (RAW cells); assay type: cell-based; details: mouse cell line, E. coli LPS (10 ng/mL), 5.5 h
Method: Compounds that lack proinflammatory properties may still interact with relevant receptors (TLR4/MD2/CD14), and thereby inhibit TNF-α production induced by E. coli LPS. Thus, the human monocytic cells and mouse macrophages (MM6 and RAW cells) were exposed to a combination of E. coli LPS (10 ng/mL) and a wide range of concentrations of lipid As 103 and 104 and, after an incubation time of 5.5 h, the supernatant was examined for human or mouse TNF-a.
(§1) On the day of the exposure assay differentiated MM6 cells were harvested by centrifugation and suspended (10^6 cells mL^−1) in tissue culture tubes and RAW 264.7 γNO(−) cells were plated as 2×10^5 cells/well in 96-well tissue culture plates (Nunc). […] Concentrations of human TNF-α protein in culture supernatants were determined by a solid phase sandwich ELISA. […] After the reaction was stopped by adding peroxidase stop solution (Kirkegaard & Perry Laboratories), the absorbance was measured at 405 nm using a microplate reader (BMG Labtech). Cytokine DuoSet ELISA Development Kits (R&D Systems) were used for the cytokine quantification of mouse TNF-α, mouse IL-6, mouse IP-10 and mouse IL-1β according to the manufacturer's instructions. The absorbance was measured at 450 nm with wavelength correction set to 540 nm. Concentrations of mouse IFN-β in culture supernatants were determined as follows. […]

MM6 cells [1] = assay: Antagonism of E. coli LPS-induced TNF-α production in human monocytic MM6 cells; assay type: cell-based; details: 5.5 h, read-out: IC50 (concentration producing 50% inhibition) of TNF production induced by E. coli LPS
Method: TNF-α concentrations were measured after preincubation of MM6 cells with increasing concentrations of 103 or 104 as indicated for 1 h at 37° C., followed by 5.5 h of incubation with E. coli LPS (1 ng mL^−1). Results are expressed as percentage of cytokine concentration of control cells, which are incubated only with E. coli LPS.
Compounds that lack proinflammatory properties may still interact with relevant receptors (TLR4/MD2/CD14), and thereby inhibit TNF-α production induced by E. coli LPS. […]
as §1

human TLR2 = target: T1, human TLR2 (Homo sapiens, UniProt O60603); assay: NF-κB activation in HEK 293T cells stably transfected with human TLR2; assay type: cell-based; details: 103/104 at 0.1, 1 and 10 μg mL−1; Pam3CysSK4 1 μg mL−1; 4 h
T1 construct: host or cells: HEK 293T
T1 sequence (O60603 21-784): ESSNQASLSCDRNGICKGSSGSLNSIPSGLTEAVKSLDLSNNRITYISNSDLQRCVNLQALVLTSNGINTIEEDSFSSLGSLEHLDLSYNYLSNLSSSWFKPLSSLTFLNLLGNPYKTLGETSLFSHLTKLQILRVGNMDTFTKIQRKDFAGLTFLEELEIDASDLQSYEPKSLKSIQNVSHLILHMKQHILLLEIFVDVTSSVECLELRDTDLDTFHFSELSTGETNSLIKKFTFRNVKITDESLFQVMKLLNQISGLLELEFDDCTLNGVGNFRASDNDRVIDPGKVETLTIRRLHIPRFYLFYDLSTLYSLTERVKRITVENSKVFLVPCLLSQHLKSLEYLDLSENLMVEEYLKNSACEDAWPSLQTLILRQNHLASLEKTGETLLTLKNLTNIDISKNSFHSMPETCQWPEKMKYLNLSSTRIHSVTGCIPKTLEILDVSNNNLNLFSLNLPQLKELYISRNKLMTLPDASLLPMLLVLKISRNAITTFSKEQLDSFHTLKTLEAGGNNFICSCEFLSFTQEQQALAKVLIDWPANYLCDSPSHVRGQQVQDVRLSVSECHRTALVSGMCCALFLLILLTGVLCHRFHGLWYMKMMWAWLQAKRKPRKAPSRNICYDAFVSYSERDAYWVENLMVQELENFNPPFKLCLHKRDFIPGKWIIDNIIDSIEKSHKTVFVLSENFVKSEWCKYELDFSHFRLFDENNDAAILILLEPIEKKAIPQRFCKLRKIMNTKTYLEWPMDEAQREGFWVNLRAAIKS
Method: Induction of NF-κB activation was determined in triplicate cultures of HEK 293T cells stably transfected with human or mouse (a) TLR4/MD2/CD14 and (b) TLR2 and transiently transfected with pELAM-Luc and pRL-TK plasmids. Forty-four h post-transfection, cells were treated with (B) E. coli LPS (10 ng mL^−1), (C) Pam3CysSK4 (1 μg mL^−1), (D, E and F) 103 (0.1, 1 and 10 μg mL^−1, respectively), (G, H and I) 104 (0.1, 1 and 10 μg mL^−1, respectively) or (A) were left untreated (control). Forty-eight h post-transfection, NF-κB activation was determined by firefly luciferase activity relative to Renilla luciferase activity. n.a. indicates not analyzed.
To examine the ability of the synthetic compounds to induce activation of NF-κB, HEK 293T cells were employed that were stably transfected with various immune receptors and transiently transfected with a plasmid containing the reporter gene pELAM-Luc (NF-κB-dependent firefly luciferase reporter vector) and a plasmid containing the control gene pRL-TK (Renilla luciferase control reporter vector) (FIG. 11). […] Although compound 104 is a weak activator of mouse TLR4, it could not induce the secretion of cytokines.
The day before transfection, HEK 293T wild type cells and HEK 293T cells stably transfected with human and murine TLR4/MD2/CD14 and human and murine TLR2 were plated in 96-well tissue culture plates (16,000 cells/well). The next day, cells were transiently transfected using PolyFect Transfection Reagent (Qiagen) with expression plasmids pELAM-Luc (NF-κB-dependent firefly luciferase reporter plasmid, 50 ng/well) (Chow et al., J. Biol. Chem., 1999, 274, 10689-10692) and pRL-TK (Renilla luciferase control reporter vector, 1 ng/well; Promega) as an internal control to normalize experimental variations. […] The luciferase activity was measured using the Dual-Luciferase Reporter Assay System (Promega) according to the manufacturer's instructions and a combination luminometer/fluorometer microplate reader (BMG Labtech). […]

MM6 cells [2] = assay: Cell viability of MM6 cells by trypan blue exclusion; assay type: cell-based, human; details: 5.5 h treatment

With `CCCCCCCCCCCCCCCC(=O)O[C@H](CCCCCCCCCCCC(C)C)CC(=O)N[C@H]1[C@H](OC[C@H]2O[C@H](OP(=O)(O)O)[C@H](NC(=O)C[C@H](O)CCCCCCCCCCCC(C)C)[C@@H](OC(=O)C[C@H](O)CCCCCCCCCCCCC)[C@@H]2O)O[C@H](CO)[C@@H](O)[C@@H]1O` [Compound 103, 6-O-{2-Deoxy-2-[(R)-3-hexadecanoyloxy-15-methyl-hexadecanoylamino]-β-D-glucopyranosyl}-3-O—[(R)-3-hydroxy-hexadecanoyl]-2-deoxy-2-[(R)-3-hydroxy-15-methyl-hexadecanoylamino]-α-D-glucopyranose 1-phosphate] the “inhibition of TNF-α production induced by E. coli LPS” value (RAW cells) was “marginal inhibition”, the IC50 (MM6 cells [1]; human MM6 cells, E. coli LPS (10 ng/mL)) was 0.16 µM and the “NF-κB activation, human TLR2” value (human TLR2) was “No activation of NF-κB”. For the same molecule, the “cell viability, cellular exclusion of trypan blue” value (MM6 cells [2]) was “did not affect cell viability”.

For `CCCCCCCCCCCCCCCC(=O)O[C@H](CCCCCCCCCCCC(C)C)CC(=O)N[C@H]1[C@H](OC[C@H]2O[C@H](OP(=O)(O)O)[C@H](NC(=O)C[C@H](O)CCCCCCCCCCCC(C)C)[C@@H](O)[C@@H]2O)O[C@H](CO)[C@@H](O)[C@@H]1ONC(=O)C[C@H](O)CCCCCCCCCC(C)C` [Compound 104, 6-O-{2-Deoxy-2-[(R)-3-hexadecanoyloxy-15-methyl-hexadecanoylamino]-3-O—[(R)-3-hydroxy-13-methyl-tetradecanoylamino]-β-D-glucopyranosyl}-2-deoxy-2-[(R)-3-hydroxy-15-methyl-hexadecanoylamino]-α-D-glucopyranose 1-phosphate], the “inhibition of TNF-α production induced by E. coli LPS” value (RAW cells) was “marginal inhibition”, the IC50 (MM6 cells [1]; Homo sapiens) was 3.2 µM and the “NF-κB activation, human TLR2” value (human TLR2) was “No activation of NF-κB”. The “cell viability, cellular exclusion of trypan blue” value (MM6 cells [2]) was “did not affect cell viability”.
